The subject of this assay is THP-1 viability, CellTiter-Glo luminescence, 72 h. In words: PubChem AID 2252.

These results are taken from PubChem BioAssay AID2252 (Southern Research Specialized Biocontainment Screening …, 2010).

In the case of `C#CCOCCOCCOCCNc1nc(N2CCN(C(=O)CCCCCCCCCCNC(=O)[C@H](CCCCN)n3cc(C)nn3)CC2)nc(N2CCN(C(=O)CCCCCCCCCCNC(=O)[C@@H]([C@H](C)CC)n3cc(CCCCCN)nn3)CC2)n1`, the EC50 was 12.7 µM.
With `C#CCOCCOCCOCCNc1nc(N2CCN(C(=O)CCCCCCCCCCNC(=O)[C@H](CO)n3cc(CCCSC)nn3)CC2)nc(N2CCN(C(=O)CCCCCCCCCCNC(=O)[C@H](CCCN=C(N)N)n3cc(C[C@@H](C)CC)nn3)CC2)n1` the figure was 9.01 µM; with `O=C(CN1C2=NCCCN2c2ccccc21)c1ccc([N+](=O)[O-])cc1`, 32.5 µM; with `O=C(C[n+]1cc(-c2ccccc2)n2c1CCC2)Nc1nc(-c2ccc(F)cc2)cs1`, 32.4 µM.
With `ON=C1/C(=N\O)CC2(C/C1=N/O)OCCO2` the figure was 33.2 µM; with `Oc1ccc(COCc2ccccc2)c2cccnc12`, 1.24 µM; with `O=C(N/N=C/c1ccc([N+](=O)[O-])o1)c1ccc(O)cc1`, 13.1 µM.
Take `CCCN1CCC(NCc2cn(C)nc2-c2ccc(Oc3ccccc3)cc2)CC1`: the EC50 was 9.72 µM.
`COc1ccc(/C=N/NC(=O)c2ccc3c(c2)OCO3)cc1`: the EC50 is 48.7 µM.
To `CN(C)CC/C=C1\c2ccc(F)cc2Sc2cc(F)c(Cl)cc21` belongs 11.3 µM; to `CCC[C@H](CN[C@@H](CNC)[C@H](C)CC)NCCc1cc(C(F)(F)F)cc(C(F)(F)F)c1`, 4.07 µM.
As to `CN1CCN(/N=C/c2c3ccccc3c(Cl)c3ccccc23)CC1`, the EC50 was 13.1 µM.
In the case of `O=C(N/N=C/c1ccccc1O)c1ccncc1`, the half-maximal effective concentration (EC50) was 15.2 µM.
To `Clc1ccc(-c2cc(C3CCNCC3)[nH]n2)c(Cl)c1` belongs 24.3 µM.
For `CC1CCC(C(C)C)C(OC(=O)Cn2c(-c3ccc(Br)cc3)[n+](C)c3ccccc32)C1` (stereo not drawn), the EC50 was 2.16 µM.
With `CC(=O)Oc1ccccc1C(=O)Nc1ncc([N+](=O)[O-])s1` the figure was 20.2 µM; with `CCc1nnc(NS(=O)(=O)c2ccc(N=Cc3c(C)[nH]n(-c4ccc(C)cc4)c3=O)cc2)s1`, 29.3 µM.
With `S=C(Nc1cc(Cl)cc(Cl)c1)NC1CCN(Cc2ccccc2)CC1` the figure was 14.6 µM.
As to `CCCCOc1ccc(CN=C(N)N)cc1Cl`, the EC50 is 10.1 µM.
In the case of `COc1cccc(Nc2nc(NCCO)c3ccccc3n2)c1`, the EC50 is 2.26 µM.
To `COc1ccc(C(=O)NC(=S)NNC(=O)c2cccnc2)cc1` belongs 21.4 µM.
To `CN1CCN(c2ccc(NC(=O)CSc3ccccc3)cc2F)CC1` belongs below 0.1 µM.
Turning to `Cc1nc(N)nc(N)c1CCCc1ccc(Cl)c(Cl)c1`, the EC50 is 5.79 µM.
Turning to `Cc1[nH]nc2c1C(C1CC=CCC1)C(C#N)=C(N)O2` (stereo not drawn), the EC50 is 13.9 µM.
Consider `O=C(NC1CCCCC1)c1ccc([N+](=O)[O-])o1`, for which the EC50 is 9.5 µM.
As for `CC(C(=O)NC1C=CS(=O)(=O)C1)N1C(=O)/C(=C/c2cccc(Cl)c2)SC1=S` (stereo not drawn), the EC50 is 24.5 µM.
`Nc1nc(Nc2cccc(F)c2)nc2ccccc12`: the EC50 is 8.85 µM.
As for `CCC(/C=C1\Sc2ccc(OC)cc2N1CCO)=C\c1sc2ccc(OC)cc2[n+]1CCO`, the half-maximal effective concentration (EC50) was 8.14 µM.
With `CCn1cc(C(=O)O)c(=O)c2cc(F)c(N3CCN(S(=O)(=O)c4ccc(NC(C)=O)cc4)CC3)cc21` the figure was 47.2 µM; with `O=C(Nc1ccc(Nc2ccncc2)cc1)c1ccc([N+](=O)[O-])cc1`, 11.9 µM.
With `O=C(N/N=C\c1ccc(Cl)s1)c1cccs1` the figure was 32.7 µM; with `OCCNc1nc(Nc2ccc(Br)cc2)nc2ccccc12`, 0.62 µM.
With `CC(/C=N/Nc1nc2ccccc2[nH]1)=C\c1ccccc1` the figure was 33.4 µM; with `O=C(NCCCN1CCN(c2ccc(F)cc2)CC1)Nc1ccc([N+](=O)[O-])cc1`, 45.1 µM.
On to `CCCCCC[N+](C)(C)CC/C=C1/c2ccccc2Sc2ccc(Cl)cc21`, for which the EC50 is 5.39 µM.
To `CC(Oc1ccc(Br)cc1)c1nc2c3ccccc3nc(=S)n2[nH]1` (stereo not drawn) belongs 17.9 µM; to `CC(C)(C)c1nc(SCC(=O)NCc2ccco2)c2ccccc2n1`, 30 µM.
On to `Cc1ccc(-c2csc(NC(=O)C[n+]3cc(-c4ccccc4)n4c3CCC4)n2)cc1`, for which the EC50 is 8.47 µM.
In the case of `Clc1ccc(OCCCNCc2ccccc2)c(Br)c1`, the EC50 was 13.7 µM.
For the compound `CN(C)CCCN(C(=O)COc1ccccc1)c1nc2ccc(Cl)cc2s1`, the EC50 was 46.8 µM.
To `O[C@@H](c1cc(C(F)(F)F)nc2c(C(F)(F)F)cccc12)[C@H]1CCCCN1` belongs 3.98 µM.
Consider `CCCCCCOC(=O)C[N+](C)(C)CCOC1CC2CCC1(C)C2(C)C` (stereo not drawn), for which the EC50 is 2.08 µM.
With `NC(N)=N/N=C/c1ccc(OCc2ccc(Cl)cc2Cl)cc1` the figure was 5.86 µM; with `N=c1c2c(n(Cc3cccc(Cl)c3)c3c1CCC3)CCCC2`, 13.5 µM; with `CN(C)CCCN1c2ccccc2Sc2ccccc21`, 32.6 µM.
For `O=C1c2cccc3cccc(c23)C(=O)C1(O)O`, the EC50 is 30.2 µM.
As to `Oc1ccc(N=Nc2ccc(Br)cc2)c(O)c1`, the EC50 was 17.8 µM.
With `Cc1ccc(-n2c(-c3ccc(Br)cc3)c[n+]3c2CCc2ccc4cccnc4c2-3)cc1` the figure was 0.76 µM; with `COc1cc(CNCCc2ccccc2)cc(Cl)c1OCc1ccccc1`, 16.6 µM.
With `Oc1ccc(C=Nc2ccc3ncccc3c2)c(O)c1` the figure was 16.5 µM; with `C=CCNc1ncnc2c1[nH]c1ccc(C)cc12`, 29.5 µM.
To `COc1cccc(CNC23CC4CC(CC(C4)C2)C3)c1OCc1ccccc1` belongs 22.3 µM; to `Cc1[nH]c2ccccc2c1/C=N/Nc1nc2ccccc2[nH]1`, 1.52 µM; to `Cc1c(Cl)cccc1Nc1nc(NCCO)c2ccccc2n1`, 10.1 µM.
On to `COc1ccccc1Nc1c2ccccc2nc2ccccc12`, for which the EC50 is 8.38 µM.
As to `O=C(NCc1ccco1)C1CCN(C(=O)c2cc3sccc3n2Cc2ccc(Cl)cc2)CC1`, the EC50 is 27.8 µM.
Turning to `O=C(C[n+]1cc(-c2ccc(Cl)cc2)n2c1CCC2)N1c2ccccc2Sc2ccccc21`, the EC50 was 15.4 µM.
In the case of `COc1cc(/C=N/NC(=O)c2cncc(Br)c2)cc([N+](=O)[O-])c1O`, the EC50 is 38.1 µM.
With `Cc1cccc(C(=O)NNC(=S)NC(=O)c2cccs2)c1` the figure was 14.6 µM; with `Brc1ccc2c(c1)CN1CCCC1=N2`, 28.6 µM; with `Clc1c(OCCCn2ccnc2)ccc2ccccc12`, 41.1 µM.
With `Cc1ccc(-c2c[n+](Cc3ccc(Cl)cc3)c3n2CCC3)cc1` the figure was 10.1 µM; with `OCCN1CCN(C2Cc3cc(Cl)ccc3Sc3ccc(Cl)cc32)CC1` (stereo not drawn) (tested in a mixture with another compound), 7.79 µM; with `N#Cc1ccc(C2=NC(C(F)(F)F)(C(F)(F)F)c3c(n(Cc4ccco4)c(=O)[nH]c3=O)N2)cc1`, 31.2 µM.
To `O=c1c2ccccc2nc(N/N=C/c2c(O)ccc3ccccc23)n1O` belongs 0.99 µM; to `O=C(Nc1ccc([N+](=O)[O-])cc1Cl)c1cc(Cl)ccc1O`, 1.93 µM; to `Nc1cc(Cl)c2nonc2c1[N+](=O)[O-]`, 2.73 µM.
As for `CCCNC1=C(C)C(=O)C2=C(C1=O)C(COC(N)=O)[C@]1(OC)C3NC3CN21` (stereo partly drawn), the EC50 was 8.84 µM.
To `Cc1cc([N+](=O)[O-])nn1CC(=O)N/N=C/c1ccccc1O` belongs 6.62 µM; to `Oc1cc(Cl)ccc1Oc1ccc(Cl)cc1Cl`, 28.6 µM; to `Oc1ccc(Cl)cc1Cc1cc(Cl)ccc1O`, 19.5 µM.
`O=C1c2ccccc2C2=Nc3ccccc3SC(c3ccccc3F)C12` (stereo not drawn): the EC50 is 13.8 µM.
With `CO[C@H]1C=CO[C@@]2(C)Oc3c(C)c(O)c4c(O)c(c(C=NN5CCN(C)CC5)c(O)c4c3C2=O)NC(=O)C(C)=CC=C[C@H](C)[C@H](O)[C@@H](C)[C@@H](O)[C@@H](C)[C@H](OC(C)=O)[C@@H]1C` the figure was 42.4 µM; with `Cc1ccccc1C(=O)NNC(=S)NC(=O)COc1ccccc1`, 48.1 µM; with `CCOC(=O)N/N=C(/C)c1ccc([N+](=O)[O-])o1`, 34.2 µM.
With `COc1ccc(Nc2ccnc3ccccc23)cc1` the figure was 30.7 µM.
Take `C/C(=N\NC(=O)c1ccc(CN2CCc3ccccc3C2)cc1)c1ccccc1O`: the half-maximal effective concentration (EC50) is 7.89 µM.
With `O=C(Nc1nc(-c2ccccn2)cs1)c1ccc(Br)s1` the figure was 1.19 µM; with `CC(C)(C)Nc1nc(-c2ccccn2)nc2ccccc12`, 3.45 µM.
With `CNCCCC1c2ccccc2C=Cc2ccccc21` the figure was 24.5 µM.
With `COc1ccc(Nc2nc(-c3ccccc3)nc3ccccc23)cc1S(=O)(=O)N1CCOCC1` the figure was 39 µM.
For `CCCCCCCCCn1c2c(c(=N)c3c1CCC3)CCC2`, the EC50 is 0.52 µM.
To `c1ccc(Sc2cccc3ccccc23)c(CNC2=NCCN2)c1` belongs 5.87 µM; to `N=c1n(CC(=O)c2ccc(Br)s2)c2ccccc2n1Cc1ccccc1`, 4.4 µM.
With `O=C(NNc1nc2ccc(F)cc2s1)c1cccc(F)c1` the figure was 8.07 µM; with `CC1=C([N+](=O)[O-])C(c2cccc(Br)c2)C2=C(N1)c1ccccc1C2=O` (stereo not drawn), 3.1 µM.
With `O=C(Nc1ccc(-c2nc3ccccc3[nH]2)cc1)c1ccco1` the figure was 10.6 µM.
In the case of `COc1ccc(CNCCc2c[nH]c3ccccc23)c(OC)c1C`, the half-maximal effective concentration (EC50) is 8.57 µM.
In the case of `CCN1CCN(c2cc(C)c3cc(NC(=S)N4CCN(c5ccccc5F)CC4)ccc3n2)CC1`, the concentration for a half-maximal effect (EC50) was 17.9 µM.
Take `COC(=O)C1=C(C(=O)OC)SC(=C2C(=S)C(C)(C)N(C(=O)C3CC3)c3ccccc32)S1`: the half-maximal effective concentration (EC50) is 30.9 µM.
Regarding `CCOC(=O)N1CCN(C(=S)NC(=O)c2ccc(Br)cc2)CC1`, the EC50 was below 0.1 µM.
For the compound `CCCCCNc1nc(N2CCCC2)c2c(c1C#N)CCN(C)C2`, the EC50 is 23.3 µM.
As for `O=C(CCl)Nc1nccs1`, the EC50 is 14.4 µM.
On to `CC(NCc1ccc(-c2ccccc2)cc1)C(O)c1ccccc1` (stereo not drawn), for which the EC50 is 5.49 µM.
In the case of `Clc1ccc2[nH]c3c(c2c1)CCc1cn[nH]c1-3`, the EC50 was 31.3 µM.
In the case of `CCN1CCN(CCNC(=O)c2ccc(/C=C3/Sc4ccccc4N(Cc4cccc(Cl)c4)C3=O)cc2)CC1`, the EC50 is 8.93 µM.
For the compound `Cc1cccc(Nc2c3c(nc4ccccc24)CCC3)c1`, the EC50 was 6.27 µM.
To `CCCOc1ccc(C(=O)NNC(=S)NC(C)=O)cc1` belongs 5.29 µM.

Usually EC50 stands for the concentration needed to bring the measured effect to its halfway point.
